# Assay results from paper PMC5554537 (Frontiers in Pharmacology, 2017).
# Where two headings read alike, the source gives them in different places.
# What was measured:
# [1] = tested on: SiHa cells; experiment: Oxygen consumption rate, Seahorse XFe96 analyser; assay type: cell-based, human; conditions: 200 µM, mitochondrial stress test
# Method: (OCR) of the human cervical carcinoma cell line SiHa and a previously described (Guise et al., 2007) POR-overexpressing transfectant SiHa/POR, determined using a Seahorse XFe96 Analyser (Agilent). Cells were passaged in αMEM plus 5% FCS, with 1 µM puromycin to maintain POR expression in the SiHa/POR cell line. Cells were ty pically seeded at 4×10^4 cells/well in Seahorse 96 well plates (without puromycin) and ~ 18 hr later the medium was changed to Seahorse medium with 10 mM glucose and 2 mM glutamine (SMGG) adjusted to pH 7.35 (150 µl/well). Plates were degassed to remove CO2, and inhibitors were added serially using the Seahorse injectors (25 µl/injection) with rotenone (final concentration 0.5 µM) typically added at the start of the 30 min equilibration in the flux analyser. OCR was monitored for three 3 min periods following each drug addition. […]
# injection 1 and at each subsequent injection to maintain concentrations at 200 µM continuously during the test. The control received equivalent injections of SMGG without drugs. In all cases (including controls), injection 2 added oligomycin to give 0.5 µM, injection 3 added carbonyl cyanide […] (FCCP) to 0.5 µM, and injection 4 added rotenone and antimy cin to 1 µM each. V alues are means and errors are standard deviations, for 6 replicate cultures. […]
# suppressed by M14, both in the presence (injection 1) and absence (injection 4) of respiratory […]
# presence or absence of 0.5 µM rotenone when SN30000 is added cumulatively to give the indicated concentrations. Values are means and SEM for 5 replicate cultures. The fall in OCR after transient stimulation at each addition of SN30000 is consistent with the pattern for CHO/POR cells in Supplementary Fig. 4A.
# C: Concentration dependence of increases in OCR by SiHa/POR cells, measured at the first […]
# effects noted above. Left panel: SN30000. Right panel: TPZ. Values are means and errors are […]
# [2] = Redox cycling: non-respiratory O2 consumption and H2O2 generation; assay type: cell-based; conditions: Chinese hamster; CHO/POR cells, 600 µM single bolus; read-out: Cell viability by trypan blue at end of exposure
# Method: The Chinese hamster ovary cell line 51D1.3 (herein called CHO) and a stable transfectant expressing a soluble form of human P450 oxidoreductase (51D1.3/sPOR, herein called CHO/POR) ([Gu et al., 2009]), were grown in spinner flasks in αMEM plus 5% fetal bovine serum. Late log phase cultures were harvested by centrifugation, resuspended at 5 × 10^5 cells/mL in phenol red-free high-glucose DMEM (Invitrogen) supplemented with 4 mM Glutamax-1, 1 mM sodium pyruvate and 5% FBS. Stirred cell suspensions (2 mL) were transferred to an OXYBOROS O2K oxygraph for simultaneous polarographic measurement of non-respiratory O2 consumption and fluorimetric measurement of H2O2 generation as previously ([Hunter et al., 2012]). Bovine liver superoxide dismutase (10 U), horseradish peroxidase (10 U), Amplex UltraRed (50 nmol) and rotenone (1 nmol), all from Molecular Probes Invitrogen (Eugene, OR), were injected and cumulative drug additions (from saline stock solutions) were made every ∼5 min once endogenous rates had stabilized. Signals were recorded every 2 s, and flux derivatives were estimated ∼2 min after each addition using a Savitzky–Golay smoothing filter (40 data point window) in DATLAB version 4.3.
# Supplementary Figure 4. Time-dependent changes in oxy gen consu mption and H2O2 formation rates induced by SN30000 in rotenone-inhibited CHO/POR cell suspensions, monitored with an OXYBOROS O2K oxygraph. Conditions of the experiment were identical to Fig. 5 except that SN30000 was added as a single bolus to separate cell suspension, rather than by cu mulative addition. A: Representative traces for oxygen consu mption and H2O2 formation rates for a single culture when SN30000 was added to a final concentration of 600 µM, at 4 min. Peak rates were established within 2 min, followed by a decline to a new steady state at approximately 1/3rd of the maximu m rate. Cell viability was > 97% by try pan […]
# killing. […]
# [3] = tested on: Wistar rats; experiment: Rectal temperature and MTD in rats; assay type: in vivo; conditions: single i.v. dose of 90 mg/kg, preliminary
# [4] = Rectal temperature and MTD in rats; assay type: in vivo; conditions: rat, in vivo, iv; Wistar rats, single i.v. dose
# [5] = tested on: NIH-III mice; parameters: method as in Gu et al., 2014; conditions: ref Gu et al., 2014, cited from earlier work; for Survival: 14 days
# [6] = tested on: NIH-III mice
# From the text: SUPPLEMTENTAL TABLE 7. Mouse toxicity of SN30000 and M14: Histopathology […]
# Male and female NIH-III mice aged 6-10 weeks were given a single i.p. dose of SN30000 (186, 248 […]
# untreated control for each sex, fixed in 10% neutral buffered formalin at room temperature for 24-48 hr, transferred to 70% ethanol and subsequently paraffin embedded, sectioned and H&E stained for light microscopy . The following tissues/organs were examined: skin, testes, eyeball, brain, liver, lung, stomach, duodenum, heart, spleen, pancreas, colon, femur and joint (incl marrow), skeletal muscle (psoas) and kidney. Results are reported only for positive findings.
# [7] = plasma
# Method: SN30000, M14 and M18 dosing solutions were prepared fresh in normal saline, filtered through 0.45 μm Acrodisc filters (Pall Life Sciences, Port Washington, NY, United States), protected from light in amber vials, and used within 3 h. Doses are expressed as mg of free base equivalent for SN30000 and M14, and free acid in the case of M18. […] For evaluation of acute toxicity, mice were observed continuously for 3 h after dosing, and their activity rated on a lethargy score from 0 representing no change in activity to 5 representing animals that were moribund and required culling. For MTD studies, the animals were checked daily for clinical signs of toxicity and body weight change for 2 weeks. In some studies rectal temperature changes after dosing were measured using a BAT-12 digital microprobe thermometer (Physitemp Instruments, Clifton, NJ, United States) at the times specified in the figures. Blood samples were collected from mice at various times by cardiac puncture, seconds after cervical dislocation, into ice-cold tubes containing K2EDTA. These were placed on ice immediately after collection and centrifuged (3,000 g, 3 min) within 10 min to harvest plasma. Plasma and tissues were rapidly frozen in liquid nitrogen before storage at -80°C for subsequent bioanalysis.
# Concentration-time data were analyzed by non-compartmental analysis using Phoenix WinNonlin (ver 6.4, Build 6.4.0768 Pharsight, United States); all AUC values were extrapolated to infinity using the linear trapezoidal rule. A compartmental model for plasma PK after dosing with SN30000 or M14 was fitted using Phoenix NLME v1.3 with random effects on the metabolite volumes of distribution, and temperature effects based on the observed body temperature at the last measurement time. Temperature effects were added or removed until there was no significant change in the log likelihood. Model fits were further assessed by visual inspection of the residuals and predicted PK.
# [8] = tested on: HT29 tumor cells; parameters: method as in Hicks et al., 2010; conditions: stirred suspensions of HT29 tumor cells; ref Hicks et al., 2010; cited from earlier work
compound,measurement,setting,value
[O-][n+]1nc(CCCN2CCOCC2)nc2cc3c(cc21)CCC3 [M14],Effect on oxygen consumption rate (OCR),[1],suppressed
"[O-][n+]1nc(CCCN2CCOCC2)[n+]([O-])c2cc3c(cc21)CCC3 [SN30000, 3-(3-Morpholinopropyl)-7,8-dihydro-6H-indeno[5,6-e][1,2,4]triazine 1,4-dioxide]",viability at 600 µM,[2],> 97%
same,Decrease in rectal temperature,[3],~2.5 °C
same,MTD,[4],90 mg/kg
same,Survival,"[5]; female, 562 µmol/kg i.p.",6/6
same,"Body weight nadir, Day","[5]; female, 562 µmol/kg i.p.",1
same,"Body weight nadir, Weight loss","[5]; female, 562 µmol/kg i.p.",8.4 ± 1.7%
same,Survival,"[5]; female, 750 µmol/kg i.p.",1/2
same,"Body weight nadir, Day","[5]; female, 750 µmol/kg i.p.",2
same,"Body weight nadir, Weight loss","[5]; female, 750 µmol/kg i.p.",14.4%
same,Survival,"[5]; female, 1000 µmol/kg i.p.",0/1
same,Survival,"[5]; male, 562 µmol/kg i.p.",7/7
same,"Body weight nadir, Day","[5]; male, 562 µmol/kg i.p.",1
same,"Body weight nadir, Weight loss","[5]; male, 562 µmol/kg i.p.",4.2 ± 1.2%
same,Survival,"[5]; male, 750 µmol/kg i.p.",2/3
same,"Body weight nadir, Day","[5]; male, 750 µmol/kg i.p.",1
same,"Body weight nadir, Weight loss","[5]; male, 750 µmol/kg i.p.",12.1 ± 3.8%
same,Survival,"[5]; male, 1000 µmol/kg i.p.",1/2
same,"Body weight nadir, Day","[5]; male, 1000 µmol/kg i.p.",1
same,"Body weight nadir, Weight loss","[5]; male, 1000 µmol/kg i.p.",13.3%
same,Survival,"[5]; male, 1333 µmol/kg i.p.",1/2
same,"Body weight nadir, Day","[5]; male, 1333 µmol/kg i.p.",1
same,"Body weight nadir, Weight loss","[5]; male, 1333 µmol/kg i.p.",11.6%
same,Effect on oxygen consumption rate (OCR),[1],increased
same,"Histopathology findings, Kidney","[6]; 186 mg/kg i.p., female, 3 examined",Basophilic cortical tubules (2); karyomegaly in tubular epithelium (3); tubular epithelial necrosis (3)
same,"Histopathology findings, Kidney","[6]; 248 mg/kg i.p., female, 2 examined",Basophilic cortical tubules (2); karyomegaly in tubular epithelium (2); tubular epithelial necrosis (2)
same,"Histopathology findings, Testes","[6]; 248 mg/kg i.p., male, 1 examined",Degeneration of germinal epithelium (1)
same,"Histopathology findings, Kidney","[6]; 248 mg/kg i.p., male, 2 examined",Basophilic cortical tubules (1); karyomegaly in tubular epithelium (1); tubular epithelial necrosis (1)
same,"Histopathology findings, Kidney","[6]; 331 mg/kg i.p., male, 1 examined",Basophilic cortical tubules (1); karyomegaly in tubular epithelium (1); tubular epithelial necrosis (1)
same,Apparent Cl,[7]; i.p. SN30000 1.86 mg/kg,553 mL/min/kg
same,Apparent Cl,[7]; i.p. SN30000 18.6 mg/kg,447 mL/min/kg
same,Apparent Cl,[7]; i.p. SN30000 78.3 mg/kg,126 mL/min/kg
same,Apparent Cl,[7]; i.p. SN30000 92.8 mg/kg,95 mL/min/kg
same,Apparent Cl,[7]; i.p. SN30000 186 mg/kg,59.2 mL/min/kg
same,O2 in solution for 50% inhibition of cytotoxicity,[8],1.14 ± 0.24 µM
